Experimental data reported in patent publication US20020102678A1, “Staphylococcal gene, vgaC, conferring resistance to streptogramin A and related compounds” (priority 2000, published 2002).

Tests used:
[1] = test system: BM3249, S. aureus clinical isolate; assay: MIC by serial twofold dilutions in MHA, strain BM3249; type: cell-based
Experimental: (§1) Staphylococci were grown in Brain Heart Infusion (Difco Laboratories, Detroit, Mich.), and E. coli cells were grown in Luria broth (10 g.1^−1 of tryptone, 5 g.^−1 of yeast extract, and 10 g.1^−1 of NaCl) Solid media contained 15 g.1^−1 of agar. Bacteria were incubated at 37° C. and for liquid cultures with agitation. Susceptibility to antibiotics was tested on Mueller-Hinton agar (MHA) (Diagnostics Pasteur, Marne-la-Coquette, France).
(§2) Susceptibility to antibiotics was determined by a disk diffusion assay (12) with commercially available antibiotic disks (Diagnostics Pasteur) and disks prepared in our laboratory as described previously (18). MICs of pristinamycin IIA and pristinamycin (Rhône-Poulenc Rorer) were determined with serial twofold dilutions of antibiotics in MHA, as described previously (2, 17).

[2] = test system: BM3250, S. aureus clinical isolate; assay: MIC by serial twofold dilutions in MHA, strain BM3250; type: cell-based
Experimental: as §1, §2

[3] = test system: BM3252, S. aureus clinical isolate; assay: MIC by serial twofold dilutions in MHA, strain BM3252; type: cell-based
Experimental: as §1, §2

[4] = test system: BM3318, S. aureus clinical isolate; assay: MIC by serial twofold dilutions in MHA, strain BM3318; type: cell-based
Experimental: as §1, §2

[5] = test system: BM3327, S. aureus clinical isolate; assay: MIC by serial twofold dilutions in MHA, strain BM3327; type: cell-based
Experimental: as §1, §2

[6] = test system: BM21926, S. aureus transformant: RN4220 (pIP 1810); assay: MIC by serial twofold dilutions in MHA, transformant carrying vgaC; type: cell-based; conditions: S. aureus RN4220 (pIP1810, carries vgaC) = BM21926
Experimental: as §1, §2
(§3) A DNA fragment of 1827-bp including vgaC was amplified with primers C and D (FIG. 1) from the cellular DNA of BM3327. This amplicon was cleaved with BamHl and KpnI and inserted between the BamHl and KpnI sites of the shuttle vector, pRB374 (11), downstream from the vegII promoter carried by this vector. The resulting plasmid, pIP1810, was introduced by electroporation into the S. aureus recipient RN4220. It conferred resistance to pristinamycin IIA (MICs: 32 mg.1^−1 for RN4220 [pIP18101, and 2 mg.1^−1 for RN4220 [pRB374]).

RN4220 [pRB374] = assay: MIC by serial twofold dilutions in MHA, transformant with the empty vector; type: cell-based; conditions: S. aureus RN4220 [pRB374], vector without vgaC
Experimental: as §1, §2, §3

[7] = test system: four S. aureus isolates (BM3249, BM3250, BM3252 and BM3327); assay: MICs of the four isolates used in filter mating; type: cell-based; conditions: range over BM3249, BM3250, BM3252 and BM3327
Experimental: as §1, §2
Each of the four S. aureus isolates (BM3249, BM3250, BM3252 and BM3327: Table 1) resistant to PIIA (MICs : 64-128 mg. 1^−1) and related antibiotics was crossed on a membrane filter with the S. aureus recipient strain, ISP1127 (26). No transcipients were obtained by selection on pristinamycin IIA (frequency<10^−10 transcipients/donor).

resistant staphylococci = conditions: staphylococci resistant to A compounds; cited from earlier work

## CC1=C\[C@@H](O)CC(=O)Cc2nc(co2)C(=O)N2CCC=C2C(=O)O[C@H](C(C)C)[C@H](C)/C=C/C(=O)NC\C=C\1 [pristinamycin IIA]
[1]
  MIC: 64 mg.1^−1
[2]
  MIC: 64 mg.1^−1
[3]
  MIC: 64 mg.1^−1
[4]
  MIC: 128 mg.1^−1
[5]
  MIC: 128 mg.1^−1
[6]
  MIC: 32 mg.1^−1
[6]; listed as SgA
  MIC: SgA (32 mg.1^−1) Km Nm Tm
RN4220 [pRB374]
  MIC: 2 mg.1^−1
[7]
  MICs: 64-128 mg. 1^−1
Resistant staphylococci
  MICs: 8 mg.1^1
